Patent US20230048888A1, “USE OF TRIAZOLOTRIAZINE DERIVATIVE IN TREATMENT OF DISEASES” (ZHEJIANG VIMGREEN PHARMACEUTICALS, LTD., priority 2019, published 2023)

Experiments:
[1] = target: T1, Human adenosine ADORA2B receptor membrane protein (Homo sapiens, UniProt P29275); assay: Radioisotope ligand competitive binding, ADORA2B ([3H] DPCPX); conditions: ADORA2B (IC50, nM, n = 3), binding test
T1 construct: purchased PerkinElmer ES-013-M400UA
T1 sequence (P29275 1-332): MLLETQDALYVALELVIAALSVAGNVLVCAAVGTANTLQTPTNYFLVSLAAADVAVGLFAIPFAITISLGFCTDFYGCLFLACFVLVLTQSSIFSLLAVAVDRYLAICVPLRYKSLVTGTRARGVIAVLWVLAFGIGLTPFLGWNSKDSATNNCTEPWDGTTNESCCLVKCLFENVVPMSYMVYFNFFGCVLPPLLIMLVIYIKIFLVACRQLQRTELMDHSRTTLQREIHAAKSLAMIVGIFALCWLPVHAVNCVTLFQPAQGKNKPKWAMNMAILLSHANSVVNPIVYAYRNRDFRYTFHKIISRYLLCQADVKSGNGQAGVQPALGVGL
Method: ADORA2B: 50 mM HEPES pH 7.0, 5 mM MgCl2, 1 mM EDTA
(§1) 4) Preparation of compounds: the test compounds and the reference compounds were separately diluted with 100% DMSO.
(§2) 1 μL of a sample to be tested and 1 μL of a reference compound were added to a 96-well plate in sequence. […] 100 μL of cells and 100 μL of isotopes were added to all experimental wells. The 96-well plate was sealed; ADORA1, ADORA2B, and ADORA3 were incubated for 1 hour on a shaker (300 rpm) at room temperature (22° C.); and ADORA2A was incubated for 2 hours on a shaker (300 rpm) at room temperature (22° C.). At the same time, a GF/C filter plate was soaked with ADORA1, ADORA2A, ADORA2B, and ADORA3 by using 0.3% PEI for at least 30 minutes at room temperature, at 50 μL/well. After the incubation was completed, the incubated reaction system was collected onto the GF/C filter plate with a Harvester, washed 4 times and then dried for 0.5 hours in an oven at 50° C. The bottom of the dried GF/C filter plate was sealed with a film, 50 μL of scintillation solution was added to each well, which was then sealed with a Top-seal-A film. With Microbeta readings, the data was analyzed by GraphPad Prism 5.0.
(§3) % Inhibition=100×(1−(Sample_raw value−Low control_Average)/(High control_Average−Low control_Average))
(§4) The data was fitted with “log(inhibitor) vs response-variable slope” in GraphPad Prism 5.0 to obtain IC50.

[2] = target: T2, Human adenosine ADORA1 receptor membrane protein (Homo sapiens, UniProt P30542); assay: Radioisotope ligand competitive binding, ADORA1 ([3H] DPCPX); conditions: ADORA1 (IC50, nM, n = 3), binding test
T2 construct: purchased PerkinElmer ES-010-M400UA
T2 sequence (P30542 1-326): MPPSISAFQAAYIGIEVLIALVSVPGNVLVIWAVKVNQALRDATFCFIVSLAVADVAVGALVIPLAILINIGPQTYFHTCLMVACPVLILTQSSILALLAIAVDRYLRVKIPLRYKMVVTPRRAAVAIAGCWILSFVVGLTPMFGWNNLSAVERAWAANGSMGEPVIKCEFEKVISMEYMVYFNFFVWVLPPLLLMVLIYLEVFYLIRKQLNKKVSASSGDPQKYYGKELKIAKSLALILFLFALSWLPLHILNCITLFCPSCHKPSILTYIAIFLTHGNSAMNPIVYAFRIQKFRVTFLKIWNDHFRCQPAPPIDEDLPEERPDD
Method: ADORA1: 25 mM HEPES pH 7.4, 5 mM MgCl2, 1 mM CaCl2, 100 mM NaCl
as §1, §2, §3, §4

Row | Structure (SMILES) | IC50 ([1]; Table 10 (IC50)) [nM] | IC50 ([1]; Table 11) [nM] | IC50 ([2]; Table 10 (IC50)) [nM] | IC50 ([2]; Table 11) [nM]
1 | Cn1nnc(-c2ccc(CCNc3nc(N)n4nc(-c5ccco5)nc4n3)cc2)n1 [Compound 40, N5-(4-(2-methyl-2H-tetrazol-5-yl)phenethyl)-2-(furan-2-yl)-[1,2,4]triazolo[1,5-a][1,3,5]triazine-5,7-diamine] | 268 ± 87.5 | 242 | 552 ± 283 | 441
2 | Nc1nc(NCCc2ccc(NC3COC3)cc2)nc2nc(-c3ccco3)nn12 [Compound 22, 2-(furan-2-yl)-N5-(4-(oxetan-3-ylamino)phenethyl)-[1,2,4]triazolo[1,5-a][1,3,5]triazine-5,7-diamine] | 344 ± 181 | 310 | 821 ± 54.2 | 564
